The values that follow are results of earlier work, collected in patent publication US6846831B2, “Method of treating the syndrome of lipodystrophy” (CPD, LLC, priority 2000, dated 2005).

Usually IC50 stands for the concentration at which inhibition is half-maximal.

The target in data set [1] is μ opioid receptor (Rattus norvegicus, UniProt P33535). Conditions: read-out: μ IC50; homogenates of rat brain minus cerebellum; prototype ligand DHM.
Data set [2] concerns the target δ opioid receptor (Rattus norvegicus, UniProt P33533). Conditions: read-out: δ IC50; homogenates of rat brain minus cerebellum; prototype ligand DADLE.
Data set [3] concerns the target κ opioid receptor (Rattus norvegicus, UniProt P34975). The conditions noted are these: read-out: κ IC50; homogenates of rat brain minus cerebellum; prototype ligand EKC.

μ opioid receptor, sequence (P33535 whole entry): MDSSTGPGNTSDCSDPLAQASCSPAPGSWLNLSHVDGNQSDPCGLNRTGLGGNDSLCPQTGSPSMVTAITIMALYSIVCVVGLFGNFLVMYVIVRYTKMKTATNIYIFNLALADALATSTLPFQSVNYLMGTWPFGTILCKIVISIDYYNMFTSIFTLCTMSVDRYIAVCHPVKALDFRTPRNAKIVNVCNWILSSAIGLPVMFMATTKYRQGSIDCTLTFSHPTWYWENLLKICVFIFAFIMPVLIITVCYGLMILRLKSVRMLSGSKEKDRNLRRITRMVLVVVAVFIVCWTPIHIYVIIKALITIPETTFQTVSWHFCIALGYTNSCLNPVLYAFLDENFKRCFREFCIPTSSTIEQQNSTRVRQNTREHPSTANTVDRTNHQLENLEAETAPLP
δ opioid receptor, sequence (P33533 whole entry): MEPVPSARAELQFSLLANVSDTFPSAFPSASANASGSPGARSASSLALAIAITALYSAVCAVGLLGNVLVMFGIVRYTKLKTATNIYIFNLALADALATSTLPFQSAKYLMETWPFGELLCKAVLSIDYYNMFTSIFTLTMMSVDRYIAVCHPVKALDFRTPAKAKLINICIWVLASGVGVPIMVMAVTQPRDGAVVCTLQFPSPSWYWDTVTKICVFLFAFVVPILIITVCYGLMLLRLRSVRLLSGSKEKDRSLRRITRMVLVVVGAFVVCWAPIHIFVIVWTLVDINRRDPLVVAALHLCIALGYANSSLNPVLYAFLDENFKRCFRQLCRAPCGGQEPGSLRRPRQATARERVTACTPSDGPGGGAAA
κ opioid receptor, sequence (P34975 whole entry): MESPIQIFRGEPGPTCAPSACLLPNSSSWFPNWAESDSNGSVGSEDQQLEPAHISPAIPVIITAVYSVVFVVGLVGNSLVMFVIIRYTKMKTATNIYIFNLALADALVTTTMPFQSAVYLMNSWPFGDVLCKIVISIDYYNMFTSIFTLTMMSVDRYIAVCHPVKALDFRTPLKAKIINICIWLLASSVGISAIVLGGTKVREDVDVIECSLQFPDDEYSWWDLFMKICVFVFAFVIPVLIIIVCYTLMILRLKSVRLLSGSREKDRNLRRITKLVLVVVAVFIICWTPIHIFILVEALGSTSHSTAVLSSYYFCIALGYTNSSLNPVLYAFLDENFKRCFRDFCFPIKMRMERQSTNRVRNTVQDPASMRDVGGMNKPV

As to `C=C1CC[C@@]2(O)[C@H]3Cc4ccc(O)c5c4[C@@]2(CCN3CC2CC2)[C@H]1O5` [Nalmefene], the figures for the 50% inhibitory concentration (IC50) in data set [1], in data set [2] and in data set [3] were 1 nM, 6.1 nM and 5.3 nM, respectively.
